This note sets out measurements from ChEMBL document CHEMBL4190350, “Synthesis, antimicrobial, antiquorum-sensing, antitumor and cytotoxic activities of new series of cyclopenta(hepta)[b]thiophene and fused cyclohepta[b]thiophene analogs” (Eur J Med Chem, 2017).

Experiment [1] relates to HT-29. The experiment in a line: Antitumor activity against human HT-29 cells assessed as inhibition of cell viability incubated for 48 hrs by MTT assay. The class given is functional, cell-based. The settings on record: HT-29, 48 h. For orientation: Formazan colour is commonly taken as a measure of viable cells.
Experiment [2] concerns Escherichia coli. The experiment in a line: Antimicrobial activity against Escherichia coli incubated for 24 hrs by disc diffusion assay. The class given is functional. (In general: Agar diffusion results depend on both activity and mobility in agar.)
Experiment [3] deals with MCF7. As to the kind of experiment: Antitumor activity against human MCF7 cells assessed as inhibition of cell viability incubated for 48 hrs by MTT assay. The class given is functional, cell-based. The settings on record: MCF7, 48 h.
In experiment [4] the test system is Chromobacterium violaceum. As to the kind of experiment: Inhibition of quorum sensing system in Chromobacterium violaceum ATCC 12472 assessed as inhibition of violacein production at 5 mg/mL incubated for 48 hrs.
Experiment [5] deals with HepG2. As to the kind of experiment: Antitumor activity against human HepG2 cells assessed as inhibition of cell viability incubated for 48 hrs by MTT assay. The settings on record: HepG2, 48 h. The class given is functional, cell-based.
Experiment [6] concerns Aspergillus fumigatus. The experiment in a line: Antimicrobial activity against Aspergillus fumigatus incubated for 48 hrs by disc diffusion assay. The format is functional.
The subject of experiment [7] is Staphylococcus aureus. The experiment in a line: Antimicrobial activity against Staphylococcus aureus incubated for 24 hrs by disc diffusion assay. The format is functional.
For experiment [8], the system named is Candida albicans. As to the kind of experiment: Antimicrobial activity against Candida albicans incubated for 48 hrs by disc diffusion assay. The class given is functional.
Experiment [9] has as its system Bacillus cereus. As to the kind of experiment: Antimicrobial activity against Bacillus cereus incubated for 24 hrs by disc diffusion assay. The format is functional.
The nature of experiment [10]: Binding affinity to DNA (unknown origin) assessed as reduction in absorption maxima for methyl green/DNA complex incubated for 24 hrs by methyl green/DNA displacement assay.

A value given as a limit tells only on which side of the number the result lay.

As usually defined, the IC50 is the concentration that gives 50% inhibition. Turning to `CCOC(=O)c1c(-n2cnnn2)sc2c1CCCCC2`, the IC50 was more than 100 µM in [1], 62.5 µM in experiment [3] and more than 100 µM in [5]. In addition, the “diameter of the inhibition zone (DIZ)” value is 6 mm in experiment [2]; less than 2 mm in experiment [6]; 3 mm in [7]; less than 2 mm in [8]; 9 mm in experiment [9]. In experiment [4], the INH is less than 2 mm.
As for `CCOC(=O)c1c(N/N=C2\C(=O)NN=C2C)sc2c1CCC2`, the values for the IC50 in experiment [1], in [3] and in experiment [5] were 84.5 µM, 57.2 µM and 92.4 µM, respectively. Moreover, the “diameter of the inhibition zone (DIZ)” value in [2] is reported as less than 2 mm; in experiment [6], less than 2 mm; in [7], 7 mm; in [8], 8 mm; in [9], less than 2 mm. Besides, the INH in [4] is less than 2 mm.
Turning to `CC1=NNC(=O)/C1=N\Nc1sc2c(c1C(=O)NN)CCCCC2`, the 50% inhibitory concentration (IC50) in experiment [1] came to 66.7 µM; in experiment [3] it was 41.2 µM; in experiment [5] it was 81.7 µM. Also, the “diameter of the inhibition zone (DIZ)” value in experiment [2], in experiment [6], in [7], in [8] and in experiment [9] was less than 2 mm in each case. For the same compound, in experiment [4], the INH came to 5 mm.
On to `COc1cccc2c1C(=O)c1c(O)c3c(c(O)c1C2=O)C[C@@](O)(C(=O)CO)C[C@@H]3O[C@H]1C[C@H](N)[C@H](O)[C@H](C)O1` [DOXORUBICIN], for which, in [10], the IC50 is 32.4 µM.
Consider `N#Cc1c(O)c2c3c(sc2[nH]c1=O)CCCCC3`, for which the figures for the 50% inhibitory concentration (IC50) in [1], in experiment [3] and in [5] were 27.3 µM, 19.1 µM and 22.7 µM, respectively. Besides, the “diameter of the inhibition zone (DIZ)” value in [2] was 3 mm; in experiment [6], 8 mm; in experiment [7] it was less than 2 mm; in [8], less than 2 mm; in experiment [9], 3 mm. In addition, the INH in experiment [4] was less than 2 mm.
On to `CCOC(=O)c1c(NC(=O)CC#N)sc2c1CCCCC2`, for which the results for the IC50 in experiment [1], in experiment [3] and in experiment [5] were more than 100 µM, 60.4 µM and more than 100 µM, respectively. The “diameter of the inhibition zone (DIZ)” value in [2] is given as less than 2 mm; in experiment [6], less than 2 mm; in experiment [7] it was less than 2 mm; in [8] it was 14 mm; in experiment [9], less than 2 mm. The INH in experiment [4] came to 2 mm.
Consider `CCOC(=O)/C(C#N)=N/Nc1sc2c(c1C(=O)OCC)CCC2`, for which the IC50 amounted to 72.1 µM in experiment [1], 45.5 µM in [3] and 58.2 µM in experiment [5]. The “diameter of the inhibition zone (DIZ)” value is given as 7 mm in [2]; less than 2 mm in [6]; 11 mm in [7]; less than 2 mm in [8]; 7 mm in experiment [9]. Also, in [4], the INH amounted to 8 mm.
Consider `CCOC(=O)c1c(N/N=C2\C(=O)NN=C2C)sc2c1CCCCC2`, for which the IC50 was 88.1 µM in [1], 52.4 µM in [3] and 42.3 µM in experiment [5]. The “diameter of the inhibition zone (DIZ)” value in [2] is less than 2 mm; in experiment [6] it was less than 2 mm; in [7] it was less than 2 mm; in experiment [8], 10 mm; in [9], less than 2 mm. The INH in [4] was less than 2 mm.
In the case of `CCOC(=O)/C(C#N)=N/Nc1sc2c(c1C(=O)OCC)CCCCC2`, the IC50 in [1] was 92.8 µM; in experiment [3], 70.9 µM; in [5], more than 100 µM. Moreover, the “diameter of the inhibition zone (DIZ)” value in experiment [2] was less than 2 mm; in [6], less than 2 mm; in experiment [7], 7 mm; in [8], 5 mm; in [9], 5 mm. The INH in experiment [4] was found to be 4 mm.
Take `CCOC(=O)C(=NNc1sc2c(c1C(=O)OCC)CCCCC2)C(=O)OCC`: the IC50 in [1] was 86.8 µM; in experiment [3], 54 µM; in experiment [5] it was 76.3 µM. Further, the “diameter of the inhibition zone (DIZ)” value is recorded as less than 2 mm in experiment [2]; less than 2 mm in experiment [6]; 5 mm in experiment [7]; less than 2 mm in experiment [8]; less than 2 mm in experiment [9]. Moreover, the INH in experiment [4] was less than 2 mm.
Turning to `NNC(=O)c1c(NN=C2C(=O)NNC2=O)sc2c1CCCCC2`, the IC50 in experiment [1] was determined as 49.4 µM; in [3], 28.7 µM; in experiment [5], 32.6 µM. In addition, the “diameter of the inhibition zone (DIZ)” value in experiment [2], in experiment [6], in [7], in experiment [8] and in experiment [9] was less than 2 mm each time. The INH in [4] stood at 6 mm.
As to `CCOC(=O)C(=NNc1sc2c(c1C(=O)OCC)CCC2)C(=O)OCC`, the IC50 in experiment [1], in experiment [3] and in experiment [5] was more than 100 µM in each case. The “diameter of the inhibition zone (DIZ)” value is recorded as 7 mm in [2]; less than 2 mm in [6]; 9 mm in experiment [7]; less than 2 mm in experiment [8]; 5 mm in experiment [9]. Moreover, the INH in experiment [4] was less than 2 mm.
Consider `NNC(=O)c1c(N/N=C2/C(=O)NN=C2N)sc2c1CCCCC2`, for which the figures for the IC50 in experiment [1], in [3] and in [5] were 41.2 µM, 18.3 µM and 35.4 µM, respectively. For the same compound, the “diameter of the inhibition zone (DIZ)” value in experiment [2], in experiment [6], in experiment [7], in [8] and in [9] was less than 2 mm in each case. The INH in experiment [4] was found to be 9 mm.
For `CCOC(=O)c1c(NC(=O)CC(C)=O)sc2c1CCCCC2`, the IC50 in experiment [1] is more than 100 µM; in [3] it was 62.8 µM; in [5] it was 89.7 µM. Further, the “diameter of the inhibition zone (DIZ)” value in experiment [2], in experiment [6], in experiment [7], in [8] and in experiment [9] was less than 2 mm in each case. The INH in experiment [4] was less than 2 mm.
As to `Oc1cc(O)c2c(c1)O[C@H](c1ccc(O)c(O)c1)[C@@H](O)C2`, the INH in [4] amounted to 2 mm.
